These results are taken from patent publication US20250064781A1, “METHODS OF TREATING, AMELIORATING, AND/OR PREVENTING STRESS-RELATED DISORDER” (Yale University, priority 2021, published 2025).

In assay [1] the test system is rhesus monkeys performing a spatial working memory task. Kind of assay: spatial working memory task (oculomotor delayed response, ODR) in monkeys exposed to stress. It counts as in vivo, Rhesus monkeys (Macaca mulatta). To be noted: for performance in spatial working memory task under stress: FIGS. 3 and 4, 0.1 mg/kg pretreatment before the stressor; for performance in spatial working memory task under stress / performance (percent correct) in spatial working memory task under stress: versus VEH+STRESS; for effect on stress-induced prefrontal deficits: rhesus monkeys, dose not stated. How it is done:
Rhesus monkeys (Macaca mulatta) exposed to stress or vehicle and administered with RS17053 (“RS17”) or vehicle (“VEH”) (FIG. 1) or administered with silodosin (“SIL”) or vehicle (“VEH”) were subjected to the oculomotor delayed response (ODR) tasks similar to those as described previously (Datta et al., J Neurosci. 2019 Apr. 3;39(14):2722-2734, the entirety of the journal article is hereby incorporated herein by reference). Specifically, the experiments were performed as the follows:
The monkeys were seated in primate chairs with their heads fixed and faced a 27-inch computer monitor 30 inches in front of them. The monkeys' eye positions were monitored with the ISCAN Eye Movement Monitoring System. The monkeys were pretrained on the visuospatial ODRtask, which required the subject to make a memory-guided saccade to a remembered visuospatial target. The ODR task was generated by the PICTO system (custom-designed, Windows-based data acquisition software). A central small white circle was illuminated on the computer monitor, which served as the fixation target. To initiate a trial, the animal fixated this central target and maintained fixation for 0.5 s (fixation period), whereupon a cue (the same sized white circle) was illuminated for a period of 0.5 s (cue period) at 1 of 8 peripheral targets located at an eccentricity of 13° with respect to the fixation spot. After the cue was extinguished, a 2.5 s delay period followed. The subject was required to maintain central fixation throughout both the cue presentation and the delay period. At the end of the delay, the fixation spot was extinguished, which instructed the monkey to make a memory-guided saccade to the location where the cue had been shown before the delay period. A trial was considered successful if the subject's response was completed within 0.5 s of the offset of the fixation spot and was within 2° around the correct cue location. The subject was rewarded with fruit juice immediately after every successful response. The position of the stimulus was randomized over trials such that it had to be remembered on a triα1-by-trial basis. The intertrial intervals (ITIs) were at least 3 s. The subject performed 1000-1500 trials per session.

Assay [2] deals with T1, α1A-adrenergic receptor subtype (α1A-AR) (Homo sapiens, UniProt P35348).
T1 sequence (P35348 1-466): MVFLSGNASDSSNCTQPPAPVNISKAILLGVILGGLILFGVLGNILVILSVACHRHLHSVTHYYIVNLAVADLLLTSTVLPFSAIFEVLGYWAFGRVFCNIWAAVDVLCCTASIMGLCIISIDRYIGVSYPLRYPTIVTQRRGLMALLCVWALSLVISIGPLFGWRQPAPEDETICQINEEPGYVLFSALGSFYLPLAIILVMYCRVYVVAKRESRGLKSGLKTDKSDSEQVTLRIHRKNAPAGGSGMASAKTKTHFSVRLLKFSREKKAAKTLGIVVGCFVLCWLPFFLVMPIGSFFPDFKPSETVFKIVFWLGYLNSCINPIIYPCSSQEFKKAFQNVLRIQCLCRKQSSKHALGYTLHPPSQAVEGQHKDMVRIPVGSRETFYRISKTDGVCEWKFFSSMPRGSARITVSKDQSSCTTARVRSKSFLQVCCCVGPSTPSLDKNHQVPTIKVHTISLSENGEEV
To be noted: Kenny et al., cited from earlier work; for α1-adrenoceptor subtype preference (in words): as previously reported; for pKi for α1A-AR: cloned human receptor, Br J Pharmacol. 1996.

The target in assay [3] is T2, α1D-adrenergic receptor subtype (α1D-AR) (Homo sapiens, UniProt P25100).
T2 sequence (P25100 1-572): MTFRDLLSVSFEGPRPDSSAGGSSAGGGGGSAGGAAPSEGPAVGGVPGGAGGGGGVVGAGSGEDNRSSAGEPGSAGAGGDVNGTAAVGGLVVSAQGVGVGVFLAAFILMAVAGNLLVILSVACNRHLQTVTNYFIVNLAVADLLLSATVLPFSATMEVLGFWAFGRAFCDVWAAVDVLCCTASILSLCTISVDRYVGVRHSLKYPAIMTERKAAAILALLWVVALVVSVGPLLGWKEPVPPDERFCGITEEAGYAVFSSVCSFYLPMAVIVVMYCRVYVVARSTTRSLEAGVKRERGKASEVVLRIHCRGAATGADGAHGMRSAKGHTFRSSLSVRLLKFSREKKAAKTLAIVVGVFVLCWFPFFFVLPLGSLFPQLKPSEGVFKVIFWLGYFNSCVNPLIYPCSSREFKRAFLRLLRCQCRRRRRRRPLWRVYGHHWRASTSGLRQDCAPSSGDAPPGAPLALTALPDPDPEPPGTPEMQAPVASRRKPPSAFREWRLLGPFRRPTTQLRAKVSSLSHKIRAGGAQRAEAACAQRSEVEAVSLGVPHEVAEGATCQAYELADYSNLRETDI
The following applies: cited from earlier work.

The target in assay [4] is T3, α1B-adrenergic receptor subtype (α1B-AR) (Homo sapiens, UniProt P35368).
T3 sequence (P35368 1-520): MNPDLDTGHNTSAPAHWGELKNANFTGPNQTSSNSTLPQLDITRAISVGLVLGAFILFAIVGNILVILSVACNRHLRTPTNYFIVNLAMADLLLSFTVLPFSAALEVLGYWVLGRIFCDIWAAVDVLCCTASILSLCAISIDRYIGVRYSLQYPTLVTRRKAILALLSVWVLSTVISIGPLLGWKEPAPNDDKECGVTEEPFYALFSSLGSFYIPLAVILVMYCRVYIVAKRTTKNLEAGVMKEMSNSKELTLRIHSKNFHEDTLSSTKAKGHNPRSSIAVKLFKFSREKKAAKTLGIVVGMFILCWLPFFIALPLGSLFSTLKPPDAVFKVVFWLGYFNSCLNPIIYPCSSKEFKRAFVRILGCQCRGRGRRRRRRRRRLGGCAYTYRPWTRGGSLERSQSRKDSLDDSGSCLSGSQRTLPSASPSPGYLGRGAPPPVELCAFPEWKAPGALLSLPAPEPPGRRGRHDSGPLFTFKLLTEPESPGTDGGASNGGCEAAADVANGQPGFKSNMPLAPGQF
To be noted: cited from earlier work.

Assay [5] addresses T1, α1A-adrenergic receptor subtype (α1A-AR). To be noted: concluded from the Kenny et al. pKi values.
Where [6] appears, read: cloned human receptor, Kenny et al., Br J Pharmacol. 1996.
[7] abbreviates: Williams et al. Br J Pharmacol. 1999.
Where [8] appears, read: CHMP assessment report for Silodyx.

Entries after “also recorded” stand apart in the source; their conditions may differ. Where a name gives a salt, the structure may show the parent alone. Read-outs that look alike come from different tables or passages of the source.

For the compound `CCOc1ccccc1OCCNC(C)Cc1ccc(OC)c(S(N)(=O)=O)c1` (centres unmarked) [tamsulosin, 5-(2-{[2-(2-Ethoxyphenoxy)ethyl]amino}propyl)-2-methoxybenzene-1-sulfonamide], in assay [1], the “performance in spatial working memory task under stress” value is on record as “protected from stress exposure” and the “effect on stress-induced prefrontal deficits” value is reported as “effective for treating disorders consequent of stress”. Also, the “effect on stress-induced prefrontal deficits” value in assay [1] (listed as tamulosin) was “completely blocked the stress-induced prefrontal deficits”. For the same compound, the “α1-adrenoceptor subtype preference (in words)” value in assay [2] is “preference for α1A-AR and α1D-AR over α1B-AR”. The “pKi for α1D-AR” value in assay [3] (setting [6]) was 8.1±0.04. Also, in assay [4] (setting [6]), the “pKi for α1B-AR” value was 7.0±0.08.

Take `Cc1c[nH]c(=O)n(CCCN2CCN(c3ccccc3OCC(F)(F)F)CC2)c1=O` [RS 100329 hydrochloride, 5-Methyl-3-[3-[3-[4-[2-(2,2,2,-trifluroethoxy)phenyl]-1-piperazinyl]propyl]-2,4-(1H,3H)-pyrimidinedione hydrochloride]: the “selectivity for α1A-AR over α1D-AR” value in assay [3] (setting [7]) was 50 fold. The “selectivity for α1A-AR over α1B-AR” value in assay [4] (setting [7]) is recorded as 126 fold.

Take `CC(C)(Cc1c[nH]c2ccc(Cl)cc12)NCCOc1ccccc1OCC1CC1` [RS17053, N-[2-(2-cyclopropylmethoxyphenoxy)ethyl]-5-chloro-α,α-dimethyl-1H-indole-3-ethanamine]: the “performance (percent correct) in spatial working memory task under stress” value in assay [1] (FIG. 1, pretreatment 0.1 mg/kg-1 mg/kg before the stressor) is given as “protected from stress exposure”. For the same compound, in assay [1] (FIG. 2, low dose 0.01 mg/kg pretreatment before the stressor), the “performance (percent correct) in spatial working memory task under stress” value is given as “blocked the stress-induced prefrontal deficits; also recorded: protected from stress exposure”. Further, in assay [1] (monkeys not subjected to stress, VEH+VEH vs. RS17+VEH), the “effect on spatial working memory performance without stress” value is on record as “no significant effect”. Further, the “effect on stress-induced prefrontal deficits” value in assay [1] is given as “completely blocked the stress-induced prefrontal deficits”. In assay [2], the “α1-adrenoceptor subtype preference (in words)” value is recorded as “strong preference for α1A-AR” and the “pKi for α1A-AR” value is 8.6±0.09. Besides, the “pKi for α1D-AR” value in assay [3] (setting [6]) was 7.1±0.09. In assay [4] (setting [6]), the “pKi for α1B-AR” value was 7.3±0.09.

`COc1cc2nc(N3CCN(C(=O)C4COc5ccccc5O4)CC3)nc(N)c2cc1OC` (centres unmarked) [doxazosin]: the “α1-adrenoceptor subtype preference (in words)” value in assay [5] is recorded as “has a preference for the α1B subtype, rather than the α1A subtype”.

As for “1-(4-amino-6,7-dimethoxy-2-quinazolinyl)-4-[[2-methoxy-6-(1-methylethyl)phenoxy]acetyl]piperazine [Rec 15/2739]”, the “pKi for α1A-AR” value in assay [2] is recorded as 9.0±0.07. Also, the “pKi for α1D-AR” value in assay [3] (setting [6]) was 8.6±0.07.

As for `C[C@H](Cc1cc2c(c(C(N)=O)c1)N(CCCO)CC2)NCCOc1ccccc1OCC(F)(F)F` [silodosin], in assay [1], the “performance in spatial working memory task under stress” value is on record as “protected from stress exposure” and the “effect on stress-induced prefrontal deficits” value is “completely blocked the stress-induced prefrontal deficits”. In addition, the “pKi for α1D-AR” value in assay [3] (setting [8]) is 8.66. Further, in assay [4] (setting [8]), the “pKi for α1B-AR” value is reported as 8.19.
